This passage reports Ki results from patent publication US12122750B2, “AT2R antagonists and uses thereof” (Eli Lilly and Company, priority 2022, dated 2024).

Sequence of recombinant human angiotensin-II receptor subtype 2 (hAT2R) (P50052 whole entry): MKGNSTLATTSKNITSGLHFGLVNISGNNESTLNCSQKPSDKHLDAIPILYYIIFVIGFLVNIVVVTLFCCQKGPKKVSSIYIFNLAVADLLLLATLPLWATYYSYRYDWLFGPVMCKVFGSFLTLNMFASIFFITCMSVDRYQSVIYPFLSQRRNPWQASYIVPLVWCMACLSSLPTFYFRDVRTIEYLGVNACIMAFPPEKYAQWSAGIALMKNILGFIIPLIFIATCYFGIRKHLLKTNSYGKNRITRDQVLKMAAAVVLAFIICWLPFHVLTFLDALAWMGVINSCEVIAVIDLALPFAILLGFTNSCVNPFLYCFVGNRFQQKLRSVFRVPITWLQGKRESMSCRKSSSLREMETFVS

For the experiment, the target named is recombinant human angiotensin-II receptor subtype 2 (hAT2R) (Homo sapiens (Human), UniProt P50052). Kind of experiment: Competitive radioligand binding assay (SPA), hAT2R HEK293 membranes. To be noted: [125I]-Tyr4-Angiotensin-II, read-out: AT2R Ki. As for the experimental part:
Compound Solubilization Test and reference compounds were received as dry powder reagents, weighed, and solubilized in 100% DMSO to generate a working stock concentration of 10 mM. Membrane Preparation Protocol (hAT2R HEK293 and rAT2R HEK293) hAT2R membranes were prepared from human embryonic kidney (HEK293) cells which were stably transfected with recombinant human angiotensin-II receptor subtype 2 (hAT2R). Cells from the stable cell lines were expanded in tissue culture flasks to generate a large population of cells; cell pellet (>1 gm), and these cell pellets were stored frozen prior to initiating this membrane isolation procedure for each receptor isoform. Frozen cell pellets were thawed in ice-cold homogenization/resuspension buffer (50 mM Tris-HCl, pH 7.5) containing one Complete© protease inhibitor tablet with EDTA (Roche Diagnostics) per 50 mL buffer, and cell pellet was resuspended at a ratio of 10 mL homogenization buffer to gram of starting cell pellet. Cell suspension was homogenized with an overhead motor-driven Teflon-glass homogenizer using 15 to 20 strokes, followed by centrifugation at 1100×g for 10 minutes at 4° C. The supernatant was saved on ice, pellets were homogenized as before, and centrifuged at 1100×g for 10 minutes at 4° C. Both supernatants were combined and subsequently centrifuged at 35,000×g for 60 minutes at 4° C. The final centrifugation pellet (pellet 2) containing the isolated membranes was resuspended in buffer (4 to 5 mL/g of starting cell paste) containing protease inhibitors and quick frozen in liquid nitrogen prior to storage at -80° C. Protein concentration was determined using a BCA kit (ThermoScientific, Inc.) with bovine serum albumin (BSA) as standard. […] The assays were performed with a scintillation proximity assay (SPA) method using polyvinyltoluene (PVT) wheat germ agglutinin-coupled SPA beads (Perkin Elmer Cat. #RPNQ0001). Assay buffer containing BSA (50 mM Tris-HCl, pH 7.5, 150 mM NaCl, 0.1% w/v fatty-acid free BSA) was used for preparing radioligand, membrane and SPA bead reagent dilution to working stock concentrations. Reference control and test compounds were diluted to obtain ten-point concentration response curves using a four-fold serial dilution protocol onto assay plates, dispensed acoustically from DMSO stock using automated ECHO instrument technology (Labcyte, Inc.). Concentration response curves were routinely generated with the highest final assay concentration for the reference angiotensin-II control at 50 nM, and the highest final assay concentration for the test compounds at 50 μM. […] The hAT2R membrane was combined with PVT-WGA SPA beads to obtain a final assay concentration of 0.25 μg/well hAT2R membrane+0.1 mg/well PVT-WGA SPA bead. And the hAT1R membrane PVT-WGA SPA bead final concentrations was 0.5 μg/well hAT1R membrane+0.1 mg/well PVT-WGA SPA bead. […] For all assays, radioligand addition was followed by the addition of membrane-SPA bead mixture, i.e., the hAT2R membrane-SPA bead mixture (30 μL), the rAT2R membrane-SPA bead mixture, or the AT1R membrane-SPA bead mixture (30 μL) into the assay plate. All dispensing steps were added using a Multiflo FX (Biotek, Inc.) bulk dispensing instrument. After reagent addition steps, assay plates were sealed, and plate contents mixed for one minute on a benchtop micro-plate shaker. Following a 10-hour incubation at room temperature to allow for bead settling and radioligand binding, bound radioactivity was quantitated using a Microbeta Trilux scintillation counter (Perkin Elmer) and expressed as counts per minute (CPM). The unlabeled angiotensin-II control was included on each plate as an experimental assay reference. […] Data Analysis Procedures Compounds were tested in a 10-point concentration response curve (CRC) format, with each plate containing the positive control angiotensin-II positive reference compound, and experimental compounds.
Turning to `CN(C(=O)N1CCC(CC(=O)N(c2ccccc2)C2CCCCC2(F)F)(C(=O)O)CC1)c1ccc(F)cc1` (racemic) [Example 10, 4-[2-(N-(2,2-difluorocyclohexyl)anilino)-2-oxo-ethyl]-1-[(4-fluorophenyl)-methyl-carbamoyl]piperidine-4-carboxylic acid], the Ki is 1.56 nM.
As to `CCC(C1CC1)N(C(=O)CC1(C(=O)O)CCN(C(=O)N(C)c2ccc(F)cc2)CC1)c1ccccc1` (racemic) [Example 17, 4-[2-[N-(1-cyclopropylpropyl)anilino]-2-oxo-ethyl]-1-[(4-fluorophenyl)-methyl-carbamoyl]piperidine-4-carboxylic acid], the Ki stood at 5.82 nM.
As for `CC(C)C(C)N(C(=O)CC1(C(=O)O)CCN(C(=O)N(C)c2ccc(F)cc2)CC1)c1ccccc1` (racemic) [Example 34, 4-[2-(N-[(1)-1,2-dimethylpropyl]anilino)-2-oxo-ethyl]-1-[(4-fluorophenyl)-methyl-carbamoyl]piperidine-4-carboxylic acid], the Ki amounted to 4.32 nM.
To `CC(CC(F)F)N(C(=O)CC1(C(=O)O)CCN(C(=O)N(C)c2ccc(F)cc2)CC1)c1ccccc1` (racemic) [Example 36, 4-[2-(N-(3,3-difluoro-1-methyl-propyl)anilino)-2-oxo-ethyl]-1-[(4-fluorophenyl)-methyl-carbamoyl]piperidine-4-carboxylic acid] belongs 4.43 nM; to `CN(C(=O)N1CCC(CC(=O)N(c2ccccc2)C2CCCOC2)(C(=O)O)CC1)c1ccc(F)cc1` (racemic) [Example 41, 1-[(4-fluorophenyl)-methyl-carbamoyl]-4-[2-oxo-2-(N-tetrahydropyran-3-ylanilino)ethyl]piperidine-4-carboxylic acid], 16.6 nM; to `CC(C1CC1)N(C(=O)CC1(C(=O)O)CCN(C(=O)N(C)c2ccc(F)cc2)CC1)c1ccccc1` (racemic) [Example 43, 4-[2-[N-(1-cyclopropylethyl)anilino]-2-oxo-ethyl]-1-[(4-fluorophenyl)-methyl-carbamoyl]piperidine-4-carboxylic acid], 2.93 nM.
In the case of `CN(C(=O)N1CCC(CC(=O)N(c2ccccc2)C2CCCOC2)(C(=O)O)CC1)c1ccc(C2CC2)cc1` (racemic) [Example 45, 1-[(4-cyclopropylphenyl)-methyl-carbamoyl]-4-[2-oxo-2-(N-tetrahydropyran-3-ylanilino)ethyl]piperidine-4-carboxylic acid] it was 3.12 nM.
Take `CN(C(=O)N1CCC(CC(=O)N(c2ccccc2F)C2CCCC(F)(F)C2)(C(=O)O)CC1)c1ccccc1` (racemic) [Example 52, 4-[2-(N-(3,3-difluorocyclohexyl)-2-fluoro-anilino)-2-oxo-ethyl]-1-[methyl(phenyl)carbamoyl]piperidine-4-carboxylic acid]: the Ki came to 0.58 nM.
Turning to `CN(C(=O)N1CCC(CC(=O)N(c2ccc(F)cc2)C2CCCC(F)(F)C2)(C(=O)O)CC1)c1ccccc1` (racemic) [Example 54, 4-[2-(N-(3,3-difluorocyclohexyl)-4-fluoro-anilino)-2-oxo-ethyl]-1-[methyl(phenyl)carbamoyl]piperidine-4-carboxylic acid], the Ki was determined as 2 nM.
As to `CC(C(=O)N1CCC(CC(=O)N(c2ccccc2)C2CCCC(F)(F)C2)(C(=O)O)CC1)c1ccc(F)cc1` (racemic) [Example 62, 4-[2-(N-(3,3-difluorocyclohexyl)anilino)-2-oxo-ethyl]-1-[2-(4-fluorophenyl)propanoyl]piperidine-4-carboxylic acid], the Ki is 1.04 nM.
In the case of `CC(C(=O)N1CCC(CC(=O)N(c2ccccc2)C2CCCC(F)(F)C2)(C(=O)O)CC1)c1cccc(F)c1` (racemic) [Example 63, 4-[2-(N-(3,3-difluorocyclohexyl)anilino)-2-oxo-ethyl]-1-[2-(3-fluorophenyl)propanoyl]piperidine-4-carboxylic acid] it was 1.19 nM.
In the case of `CC(C(=O)N1CCC(CC(=O)N(c2ccccc2)C2CCCC(F)(F)C2)(C(=O)O)CC1)c1ccccc1F` (racemic) [Example 64, 4-[2-(N-(3,3-difluorocyclohexyl)anilino)-2-oxo-ethyl]-1-[2-(2-fluorophenyl)propanoyl]piperidine-4-carboxylic acid] it was 1.04 nM.
As to `O=C(Cc1ccccc1F)N1CCC(CC(=O)N(c2ccccc2)C2CCCC(F)(F)C2)(C(=O)O)CC1` (racemic) [Example 65, 4-[2-(N-(3,3-difluorocyclohexyl)anilino)-2-oxo-ethyl]-1-[2-(2-fluorophenyl)acetyl]piperidine-4-carboxylic acid], the Ki is 2.55 nM.
To `CC(C)c1ccc(C(=O)N2CCC(CC(=O)N(c3ccccc3)C3CCCC(F)(F)C3)(C(=O)O)CC2)c(F)c1` (racemic) [Example 68, 4-[2-(N-(3,3-difluorocyclohexyl)anilino)-2-oxo-ethyl]-1-(2-fluoro-4-isopropyl-benzoyl)piperidine-4-carboxylic acid] belongs 2.93 nM; to `CC(C)c1ccc(C(=O)N2CCC(CC(=O)N(c3ccccc3)C3CCCC(F)(F)C3)(C(=O)O)CC2)cc1` (racemic) [Example 69, 4-[2-(N-(3,3-difluorocyclohexyl)anilino)-2-oxo-ethyl]-1-(4-isopropylbenzoyl)piperidine-4-carboxylic acid], 9.24 nM.
For the compound `O=C(c1ccc(C2CC2)cc1)N1CCC(CC(=O)N(c2ccccc2)C2CCCC(F)(F)C2)(C(=O)O)CC1` (racemic) [Example 70, 1-(4-cyclopropylbenzoyl)-4-[2-(N-(3,3-difluorocyclohexyl)anilino)-2-oxo-ethyl]piperidine-4-carboxylic acid], the inhibitory constant (Ki) was 9.39 nM.
Take `O=C(N1CCC(CC(=O)N(c2ccccc2)C2CCCC(F)(F)C2)(C(=O)O)CC1)N1CCc2c(F)cccc21` (racemic) [Example 71, 4-[2-(N-(3,3-difluorocyclohexyl)anilino)-2-oxo-ethyl]-1-(4-fluoroindoline-1-carbonyl)piperidine-4-carboxylic acid]: the Ki amounted to 3.14 nM.
Take `O=C(N1CCC(CC(=O)N(c2ccccc2)C2CCCC(F)(F)C2)(C(=O)O)CC1)N1CCc2ccc(F)cc21` (racemic) [Example 72, 4-[2-(N-(3,3-difluorocyclohexyl)anilino)-2-oxo-ethyl]-1-(6-fluoroindoline-1-carbonyl)piperidine-4-carboxylic acid]: the Ki stood at 1.09 nM.
In the case of `O=C(N1CCC(CC(=O)N(c2ccccc2)C2CCCC(F)(F)C2)(C(=O)O)CC1)N1CCc2cccc(F)c21` (racemic) [Example 73, 4-[2-(N-(3,3-difluorocyclohexyl)anilino)-2-oxo-ethyl]-1-(7-fluoroindoline-1-carbonyl)piperidine-4-carboxylic acid] it was 3.03 nM; in that of `O=C(N1CCC(CC(=O)N(c2ccccc2)C2CCCC(F)(F)C2)(C(=O)O)CC1)N1CCc2ccccc21` (single isomer, unassigned) [Example 35A, 4-[2-(N-(3,3-difluorocyclohexyl)anilino)-2-oxo-ethyl]-1-(indoline-1-carbonyl)piperidine-4-carboxylic acid], 10.8 nM.
To `CN(C(=O)N1CCC(CC(=O)N(c2ccccc2)C2CCCOC2)(C(=O)O)CC1)c1ccc(F)cc1` (single isomer, unassigned) [Example 41A, 1-[(4-fluorophenyl)-methyl-carbamoyl]-4-[2-oxo-2-(N-tetrahydropyran-3-ylanilino)ethyl]piperidine-4-carboxylic acid] belongs 8.89 nM.

The term Ki denotes a dissociation constant, usually derived from enzyme kinetics or from competition with a known ligand.
